In PMC9400670, “Establishing the selective phospholipid membrane coordination, permeation and lysis properties for a series of ‘druggable’ supramolecular self-associating antimicrobial amphiphiles” (Chemical Science, 2022):
Read-outs that look alike come from different tables or passages of the source.

Experiments:
[1] = tested on: calcein loaded phospholipid vesicles (PC, PG, PE-PG mix, E. coli total, E. coli polar); assay: Synthetic phospholipid vesicle lysis (calcein leakage) assay; details: SSA 1.5 mM, in words; for time dependence of vesicle lysis: 15 min vs 30 s, E. coli-based vesicles
Description: Here, samples of phospholipid vesicles containing the fluorescent dye calcein were prepared. At internal vesicle concentrations, this dye undergoes self-quenching. […] The increase in fluorescence output is proportional to the % of vesicle lysis observed upon the addition of SSAs 1–14, when calibrated against a solution of vesicles know to have undergone 100% lysis, see Fig. 5.
Fig. 5 The average (n = 3) percentage lysis (%) of vesicles (30 μM) composed of five different lipid compositions (Table 2), with an internal calcein concentration of 70 mM at 298 K. The % vesicle lysis was calculated through observation of increasing fluorescence emission (λem = 515 nm), following the addition of SSAs […] (1.5 mM) in a H2O/EtOH 95 : 5 solution after: (a) 30 s and; (b) 15 min. Triton X-100 (1%) was used as a positive control for 100% vesicle lysis. Data normalised to the addition of a H2O/EtOH 95 : 5 solution. Red = PC, yellow = PG, green = PE-PG mix, blue = E. coli total, pink = E. coli polar. Error = standard error.
Section 2: General Methods […]
Preparation of vesicles: All lipids were purchased as powder stocks from Avanti Polar Lipids. Lipid vesicles were prepared according to standard procedures.1 Each phospholipid was dissolved in chloroform (~ 10 mL) and the solvent was removed under reduced pressure. The thin film of dried lipid was further dried in vacuo for at least 2 hours. Lipid films were resuspended in the desired buffer and subjected to 9 freeze-thaw cycles in liquid nitrogen and extruded 20 times through a 200 nm […]
Preparation of calcein loaded vesicles: Lipid films were resuspended in buffer A (70 mM calcein, 10 mM TRIS pH 8.5, 0.5 mM EDTA, 110 mM NaCl, pH adjusted to 6-7) and subjected to 9 freeze-thaw cycles in liquid nitrogen and extruded 20 times through a 200 nm polycarbonate membrane. The suspension was run down a size exclusion column packed with sephadex G-50 using buffer B (10 mM TRIS pH 8.5, 0.5 mM EDTA, 110 mM NaCl). The hydrodynamic dimeter of the lipids was monitored using an Anton Paar LitesizerTM 500 to ensure the separation of free and entrapped calcein.
Phospholipid concentration was adjusted to 30 µM for vesicle leakage experiments.
Vesicle leakage assay: Black bottom 96-well plates were prepared with the appropriate lipid solution (100 µL, 30 µM) and desired SSA solution (100 µL) prepared in H2O/EtOH 95: 5. A solution of 1 % Triton X-100 (16) was used for a 100 % lysis control and a H2O/EtOH 95: 5 solution was used as a 0 % lysis control. Fluorescent measurements were taken at 25 °C using an excitation value of 495 nm and an optimised gain of 983. Data were acquired in endpoint mode. All experiments were repeated in triplicate to ensure experimental reproducibility. […]
Data

[2] = Satellite terminal tissue sampling after i.v. dosing; type: in vivo; details: n = 3 mice; for concentration at 0.5 h / concentration at 4 h: CD-1, mouse, iv, 1 mg kg^−1; for concentration at 0.5 h: 0.5 h post i.v. dosing
Description: Finally, to gain an understanding of the propensity for SSAs 3 and 5 to diffuse from the mouse circulatory system into the mouse tissues, satellite terminal tissue sampling was also performed.

[3] = set-up: method as in PMID 29568426; details: surface tension; 19 : 1 H2O : EtOH solution at 298 K; unit printed only in Figs S37-S40; cited from earlier work
[4] = liver, read-out: Concentration of SSA in liver
[5] = liver, 4.0 h post i.v. dosing, read-out: Concentration of SSA in liver
[6] = lung, read-out: Concentration of SSA in lung
[7] = muscle, read-out: Concentration of SSA in muscle

## Cc1ccc2nc(-c3ccc(NC(=O)NCC(=O)O)cc3)sc2c1 [SSA 11]
[1]; thirty seconds after SSA addition, five vesicle types
  vesicle lysis activity: general surfactant type properties, similar to that of Triton

## O=C(NCS(=O)(=O)O)Nc1ccccc1-c1nc2ccccc2s1 [SSA 5]
[2]; 4.0 h post i.v. dosing
  Concentration of SSA in lung: BLQ
  Concentration of SSA in muscle: BLQ
[2]; [4]
  concentration at 0.5 h: 2200 nM
[2]; [5]
  concentration at 4 h: 429 nM
[2]; [6]
  concentration at 0.5 h: 153 nM
[2]; [7]
  concentration at 0.5 h: 172 nM
[3]
  CMC: 9.5 (ref. [38]) mM

## O=C(NCS(=O)(=O)O)Nc1ccc(C(F)(F)F)cc1 [SSA 3]
[2]; 4.0 h post i.v. dosing
  Concentration of SSA in muscle: BLQ
[2]; [4]
  concentration at 0.5 h: 1230 nM
[2]; [5]
  concentration at 4 h: 206 nM
[2]; [6]
  concentration at 0.5 h: 86 nM
[2]; lung, 4.0 h post i.v. dosing, read-out: Concentration of SSA in lung
  concentration at 4 h: 18 nM
[2]; [7]
  concentration at 0.5 h: 86 nM

## Cc1ccc2nc(-c3ccc(NC(=O)NCCCS(=O)(=O)O)cc3)sc2c1 [SSA 10]
[1]
  time dependence of vesicle lysis: time dependent enhancement of vesicle lysis

## Cc1ccc2nc(-c3ccc(NC(=O)NCCC(=O)O)cc3)sc2c1 [SSA 9]
[1]
  time dependence of vesicle lysis: time dependent enhancement of vesicle lysis

## Cc1ccc2nc(-c3ccc(NC(=O)NCS(=O)(=O)O)cc3)sc2c1 [SSA 6]
[1]
  time dependence of vesicle lysis: time dependent enhancement of vesicle lysis
[3]
  CMC: 0.5 (ref. [38]) mM

## O=C(NCS(=O)(=O)O)Nc1ccc(-c2nc3ccccc3s2)cc1 [SSA 8]
[1]
  time dependence of vesicle lysis: time dependent enhancement of vesicle lysis
